Data on 1 molecule can be found in patent US8987293B2, “Morphinans useful as analgesics” (Phoenix Pharmalabs, Inc., priority 2010, dated 2015).

For test [1], the target named is T1, human delta receptor (Homo sapiens, UniProt P41143).
T1 construct: expressed in transfected cells; host or cells: CHO cells
The test can be described thus: [35S]GTP γS binding functional assay, CHO cell membranes. It counts as biochemical.

In test [2] the target is T2, human kappa receptor (Homo sapiens, UniProt P41145).
T2 construct: expressed in transfected cells; host or cells: CHO cells
The test can be described thus: Opioid receptor binding affinity, [3H]U69593, CHO cell membranes.

Test [3] addresses T1, human delta receptor. The test can be described thus: Opioid receptor binding affinity, [3H]Cl-DPDPE, CHO cell membranes.
For test [4], the target named is T2, human kappa receptor. As to the kind of experiment: [35S]GTP γS binding functional assay, CHO cell membranes. It counts as biochemical. Particulars: 1 hr at 25 C.

T1 sequence (P41143 whole entry): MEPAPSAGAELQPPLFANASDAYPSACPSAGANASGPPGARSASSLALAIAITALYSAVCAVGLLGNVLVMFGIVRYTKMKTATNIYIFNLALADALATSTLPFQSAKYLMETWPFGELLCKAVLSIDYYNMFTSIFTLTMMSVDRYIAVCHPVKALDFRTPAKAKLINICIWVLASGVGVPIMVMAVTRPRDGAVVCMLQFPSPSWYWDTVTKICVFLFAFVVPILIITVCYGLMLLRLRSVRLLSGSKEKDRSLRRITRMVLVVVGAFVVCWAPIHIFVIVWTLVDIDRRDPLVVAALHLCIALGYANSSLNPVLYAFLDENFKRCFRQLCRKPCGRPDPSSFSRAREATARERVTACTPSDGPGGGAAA
T2 sequence (P41145 whole entry): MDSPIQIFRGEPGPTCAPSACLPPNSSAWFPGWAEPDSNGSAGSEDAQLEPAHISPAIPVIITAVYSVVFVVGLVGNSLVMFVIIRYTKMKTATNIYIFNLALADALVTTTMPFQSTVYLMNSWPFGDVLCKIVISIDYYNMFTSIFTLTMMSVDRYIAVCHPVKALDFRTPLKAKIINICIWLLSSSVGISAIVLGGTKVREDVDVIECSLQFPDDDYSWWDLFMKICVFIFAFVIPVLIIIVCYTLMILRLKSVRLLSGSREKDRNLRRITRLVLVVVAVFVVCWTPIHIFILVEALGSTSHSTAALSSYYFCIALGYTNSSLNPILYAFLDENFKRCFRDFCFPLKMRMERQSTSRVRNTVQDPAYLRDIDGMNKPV

Turning to `C[C@H](C1CC1)N1CC[C@]23CCCC[C@H]2[C@H]1Cc1ccc(O)cc13` [Compound 5], the EC50 at human delta receptor [1] stood at 9.01 ± 2.6 nM. The “percent stimulation at the delta receptor” value at human delta receptor [1] ([35S]GTP γS, 1 hr at 25 C) is recorded as 39.8±3.9%. The figures for the Ki on human kappa receptor [2] and at human delta receptor [3] were 0.29 ± 0.1 nM and 2.47 ± 0.1 nM, respectively. In addition, on human kappa receptor [4], the “percent stimulation at the kappa receptor” value was 41.7±5.0%.
